We go through three molecules from patent US20080249144A1, “Preventive or Therapeutic Agent for Chronic Inflammatory Lung Disease” (KAKEN PHARMACEUITICAL CO., LTD., priority 2004, published 2008).

Data set [1] has as its system vanadium pentoxide-induced bronchitis model. The data set is described as follows: Vanadium pentoxide-induced bronchitis model in mice. Format: in vivo. As to conditions: 7 days after vanadium pentoxide; compared with control. Here is the method:
Seven-week old C57BL strain male mice were used. The mouse was anaesthetized with isoflurane. Vanadium pentoxide (20 μg) was administered once to the lung through a cannula inserted into the trachea through the pharyngolarynx to induce pathology. To a non-vanadium pentoxide administration group (normal group), saline was administered, instead. KP-496 was administered by inhalation twice a day in the period from the vanadium pentoxide administration date to the day before autopsy, in the same manner as in Example 2. Furthermore, the normal group and the control group were allowed to spontaneously inhale saline in the same manner. A medicament for use in comparison, prednisolone, was orally administered at a dose of 5 mg/kg twice a day in the period from the vanadium pentoxide administration date to the day before autopsy. Note that the normal group consisted of 6 animals and the other group consisted of 10 animals. Each of the mice was anaesthetized with pentobarbital 7 days after vanadium pentoxide administration and killed by bloodletting from the abdominal aorta. The lung was excised out and fixed in 10 vol % neutral buffered formalin solution. […] The obtained value was divided by the circumferential length of the bronchial lumen (obtained in mucosal basal membrane) and the quotient was expressed as a mucus producing region area per millimeter of the bronchus. […]

The test system of data set [2] is PPE-induced pulmonary emphysema model. The data set is described as follows: PPE-induced pulmonary emphysema model in mice. Format: in vivo. Here is the method:
Eight-week old C57BL strain mice were anaesthetized with isoflurane. PPE (25 μg) was administered once to the lung through a cannula inserted into the trachea through the pharyngolarynx to induce a pulmonary damage. To a non-PPE administration group (normal group), saline was administered instead. In a preventive administration experiment (hereinafter referred to as a “preventive experiment”) of KP-496, drug effect was evaluated on inflammatory cells in BALF 2 days after PPE administration and by histopathological examination of the lung after 10 days. In a therapeutic administration experiment of KP-496 (hereinafter referred to as a “therapeutic experiment”), the drug effect was evaluated by histo-pathological examination of the lung and weight of the organs 14 days after PPE administration.
The medicament administration period was set from the PPE administration date to the day before autopsy in the preventive experiment and set from a predetermined day (KP-496A group: PPE administration date, KP-496B group: 3 days after PPE administration date, KP-496C group: 7 days after PPE administration date) to the day before autopsy in the therapeutic experiment. Inhalation administration of KP-496 was performed in the same manner as in Example 2. Furthermore, the normal group and the control group were allowed to spontaneously inhale saline, instead. A medicament for use in comparison, prednisolone, was orally administered in a dose of 5 mg/kg twice a day. A group consisted of 10 animals.
The animals were anaesthetized with pentobarbital and killed by exsanguination. Immediately after that, BAL of the right and left lungs was performed with 2 ml of saline. In the same manner as in Example 2, the total number of cells and the number of cells according to the cell type in the BALE were determined.
The lung was excised out from the animal killed by exsanguination in the same manner as in the above, the weight of the lung was measured. The lung was fixed in 10 vol % neutral buffered formalin solution. A pathological tissue sample was prepared in accordance in a general way. The degree of the damage of the lung tissue observed was evaluated by scoring in the same manner as in Example 2. Furthermore, the average of alveolar-space area of the entire lung tissue sample was computationally measured with image-processing software.
The average value and standard deviation of each group were calculated. Comparison between the normal group and the control group was performed by the Levene's test for equal variance and then, the t-test was performed depending on the results. To compare the control group and test substance administration groups, equal variance was first confirmed by the Levene's test and then multiple comparisons were performed in accordance with the Dunnett's test. Note that evaluation parameters with unequal variance and the damage score of the lung tissue were analyzed by nonparametric Mann-Whitney test. The significance level employed was […].

For a further data set, the system named is COPD patients. As to conditions: according to the reports (Non-patent documents 7, 8 and patent document 1); cited from earlier work.
In a further data set the test system is human neutrophils. As to the kind of experiment: LTB4-induced human neutrophil migration (48-well modified Boyden chamber). The data set is classed as cell-based. The conditions noted are these: test substance 10 μmol/L; 10 nmol/L LTB4. Here is the method: Leukocytes were collected from human peripheral blood samples (20 mL of venous blood was taken by a doctor) were obtained from 4 healthy adults (male). They received sufficient information on the purpose of the experiment and gave informed consent in advance. An equivalent amount of 3% dextran (M.W. 208000) saline solution was added to the heparinized blood thus obtained and the mixture was kept to stand for one hour. Thereafter, the supernatant was collected and centrifuged at 150 g for 5 minutes at 4° C. The supernatant was discarded and the pellet was repeatedly twice haemolysed. To explain in detail, 4 mL of an ice-cooled 0.2% NaCl solution was added, quickly suspended and allowed to stand for 20 to 30 seconds. Thereafter, 4 mL of an ice-cooled 1.6% NaCl solution was added to the suspension solution to return the solution to the isotonic condition. After centrifugation was performed at 150 g for 5 minutes at 4° C., the same treatment was repeated. The cell pellet obtained was finally suspended in a buffer (Hank's solution containing 0.1% FBS) and subjected to an experiment.
This experiment was performed using a 48-well modified Boyden chamber (Neuro Probe). To explain in detail, the wells of the bottom plate of the chamber were filled with 25 μl of vehicle solution containing 10 nmol/L of LTB4. A polycarbonate filter (PVP-free, pore size: 3 μm) was placed on the bottom plate. The top plate of the chamber was mounted and each well of the upper plate was filled with 45 μL of a leukocyte suspension solution (1.0×10^6 cells/mL) prepared with the buffer. Immediately after that, 5 μL of a test substance (10 fold concentration of a final concentration) was added to the wells. […] The numbers of cells were counted in 4 visual fields (×400) per well and the average of them was regarded as the number of migrated cells. Each test substance was evaluated using 3 wells. The average value of these wells was calculated and regarded as the value of each substance.
The average and standard deviation of each group were calculated. […]

Take `C[C@]12C=CC(=O)C=C1CC[C@@H]1[C@@H]2[C@@H](O)C[C@@]2(C)[C@H]1CC[C@]2(O)C(=O)CO` [prednisolone, reference compound]: the “increase of PAS positive area (mucus producing region of intrapulmonary bronchial epithelium)” value in data set [1] was “significantly suppressed”. Moreover, the “total number of cells in BALF” value in data set [2] (2 days after PPE administration, preventive experiment) is reported as 4.3±2.1 ×10^5 cells. Moreover, in data set [2] (2 days after PPE, compared to control group), the “number of eosinophils in BALF” value is recorded as “significantly decreased”. Further, the “weights of the organs (liver, spleen and thymus gland)” value in data set [2] (compared to control group) is “significantly decreased”. In addition, in data set [2] (preventive experiment, 10 days after PPE), the “increase in lung weight” value was “significantly suppressed”. For the same molecule, the “damage score of the lung” value in data set [2] (preventive experiment, 10 days after PPE, compared with control group) is “significantly decreased”. Besides, the body weight change entry in data set [2] (preventive experiment, up to 10 days after PPE, compared to control group) is listed as “significant reduction compared to the control group”. Besides, the “increase of the average of the alveolar-space area” value in data set [2] (preventive experiment, compared to control) was “significantly suppressed”.
Turning to `CC1=C(C)C(=O)C(C(CCCCCC(=O)O)c2ccccc2)=C(C)C1=O` (centres unmarked) [seratorodast, reference compound], the “respiratory function of COPD patients” value in the data set with COPD patients is recorded as “improves the respiratory function”. The “suppression of LTB4-induced neutrophil migration” value in the data set with human neutrophils was “did not suppress the migration at all”.
As for `COc1cc(C(=O)NS(=O)(=O)c2ccccc2C)ccc1Cc1cn(C)c2ccc(NC(=O)OC3CCCC3)cc12` [zafirlukast], the “respiratory function of COPD patients” value in the data set on COPD patients is listed as “improves the respiratory function”.
